How the values were obtained:
[1] = tested on: Stage 5 gametocytes from P. falciparum NF54; assay: Late-stage (stage V) gametocyte survival assay, MitoTracker; assay type: cell-based, Plasmodium falciparum; conditions: for EC50: Plasmodium falciparum, P. falciparum NF54, 72 h, read-out: Stage 5 Gametocyte EC50; for EC50 fold shift compared to asexual stage: Stage 5 Gametocyte EC50: gametocyte EC50 / 3D7 EC50
Method in brief: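 Synchronized P. falciparum NF54 stage V gametocytes were exposed to compound (1.25 μM or 12.5 μM) for 72 h. MitoTracker Red CMXRos (500 nM final) was then added with saponin to lyse RBCs, and plates were imaged by high-content fluorescence. The readout was the number of metabolically active gametocytes per well.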

[2] = tested on: P. falciparum 3D7, Dd2, Dd2Δexo; assay: In vitro evolution of compound-resistant lines (selection); assay type: cell-based, Plasmodium falciparum; conditions: for # of Resistant Strains Generated: resistant cultures out of three independent cultures; for EC50 fold shifts observed: selected parasites vs selection parent
Text: While we found an overall lack of pre-existing resistance, analysing the onset of resistance was critical, as compounds resulting in rapid resistance are not ideal for clinical development. We therefore sought to create drug-resistant parasites using a variety of different selection methods. We implemented either a high-dose method or a ramp-up/pulse method for our in vitro selections. Two of the 50 compounds—MMV028895 and MMV665824—were removed from the selection study during experimentation. […] Out of the remaining 48 compounds, resistant parasites were obtained for 23 (Supplementary Data 1). As each selection was performed in triplicate with three independent cultures, we succeeded in generating a total of 66 resistant cultures. Parasites resistant to MMV026596 were not obtained despite 100 days of selection, but the cultures acquired hypersensitivity to mefloquine with a 10-fold reduction in EC50 compared with its parental line, 3D7. For the remaining 24 compounds, acquisition of resistant parasites was unsuccessful despite numerous attempts over an extensive period of time.
Based on the compound speed of action and lab specialty, selections were conducted using a high-pressure intermittent selection method, a step-wise selection method, or a constant selection method. For high-pressure selections, ∼1–2 × 10^9 parasites were treated at a concentration of 3–10 × EC50 until parasites could not be seen by microscopy (4–10 days). Following treatment, compound pressure was removed and cultures were allowed to recover. Once healthy parasites were seen and parasitemia reached ∼2%, compound pressure was reinstated. For step-wise selections, ∼1 × 10^8 parasites were treated at a starting concentration resulting in a reduced growth rate of 50%. Cultures were examined daily by microscopy, increasing compound concentration in increments of 5–10% as needed to maintain a 50% reduced growth rate. Selections were carried out until cultures achieved a reproducible EC50 fold shift of >3 × . Finally, constant selections were conducted in a similar manner to the high-pressure intermittent method with the exception that compound pressure was never removed. Following successful selection, cultures were cloned out using a limiting dilution method as previously described. Selections were terminated after 200 days if resistance could not be obtained.

[3] = tested on: ATQ-R5 (cytb F267V, parent 3D7); assay: Cross-resistance EC50 assay, ATQ-R5; assay type: cell-based, Plasmodium falciparum; conditions: for EC50: Plasmodium falciparum, 3D7, SYBR green 72 hour assay, asynchronized parasites, 96-well or 1536-well format, ATQ-R5
Text: (§1) To evaluate potential overlapping activity against known antimalarial drug targets, we performed dose-response studies with each compound against our assembled set of drug-resistant lines and their corresponding parents, in an asexual blood stage proliferation assay (Table 1). Comparisons were made to the drug-sensitive strain 3D7 when a parent was unavailable (TM90C2A, W2 and Dd2). As laboratories conducted EC50 assays with different strains and protocols, all comparisons were made between assays from the same laboratory and under the same assay conditions. Compounds displaying >5-fold EC50 shifts relative to the parent or sensitive strain were flagged as having potentially non-novel targets. Average fold shifts per strain ranged from 0.82 to 2.34, with a median of 1.23 indicating there was not common resistance to any one resistant clone. No resistance patterns were observed when classifying the compounds based on chemical structure, but this was not surprising given the diversity of compounds chosen. On the other hand, given that these confirmed compounds were derived from larger unconfirmed hit lists to which some filtration criteria may have been applied (for example, elimination of obvious dihydrofolate reductase inhibitors[32]), some[10][11][12][13] pre-existing bias may exist in the set. […]
(§2) Alternatively, a SYBR Green-based proliferation approach was used for the 72-h assay, as previously described. Briefly, a culture of either synchronized or asynchronous parasitized RBCs (0.3% parasitemia and 4% haematocrit) in screening medium (identical to supplemented medium above except no serum was added) was exposed to serial drug dilutions. Plates were incubated at 37 °C and gassed with 93% N2, 4% CO2 and 3% O2 for 72 h. Following incubation, 10 × SYBR Green I (Invitrogen; supplied in 10,000 × concentration) in lysis buffer ([…], 5 mM EDTA, 0.16% Saponin wt per vol and 1.6% Triton X vol per vol) was added to the wells and the plates were incubated overnight at room temperature before plate reading. EC50 assays were repeated three times, taking the average EC50 value from each assay set, and removing any outliers using a single iteration of Grubbs' test, eliminating values with z-scores above the critical z-value (α=0.05). The raw EC50 values for synchronized parasites assayed in a 384-well format are listed in Supplementary Data 4. The raw EC50 values for asynchronous parasites assayed in a 96 or 1536-well format are listed in Supplementary Data 5.
(§3) EC50 values for each strain were compared with those of the corresponding parent strain to determine fold-shift changes and identify resistance. To minimize the cause variance between assays, all comparisons were conducted between strains assayed under identical conditions. A one-way ANOVA followed by a Dunnet's post-test was conducted in GraphPad Prism to identify significant changes between the parent and resistant strain.

[4] = tested on: ProRS (prolyl t-RNA synthetase L482H, parent Dd2); assay: Cross-resistance EC50 assay, ProRS; assay type: cell-based; conditions: Plasmodium falciparum; SYBR green 72 hour assay; synchronized parasites; 384-well format; strain ProRS (Dd2 parent)
Text: as §1, §2, §3

SMILES	EC50 [1]	EC50 fold shift compared to asexual stage: Stage 5 Gametocyte EC50 [1]	Time Length to Obtain Mutants ([2]; in vitro selection)	# of Resistant Strains Generated [2]	EC50 fold shifts observed [2]	EC50 [3]	EC50 [4]	resistance in ATQ-R5 vs parent ([3]; EC50 fold-shift under the threshold (5-fold))	acquisition of resistant parasites ([2]; in vitro selection)
OC(CNC1CCCCC1)Cn1c2ccc(I)cc2c2cc(I)ccc21 (centres unmarked) [MMV665882]	323 nM	4.44	LONG (> 125 days)	3/3	2-3x	0.026 µM	25 nM		
COc1ccc(-c2nc(NC(=O)Cc3ccc4c(c3)OCCO4)sc2C)cc1 [MMV019719]	5520 nM	33.66	MODERATE (50-125 days)	3/3	3x	0.213 µM	244 nM		
CCN(CC)CCn1c(=N)n(CC(O)c2ccc(Cl)c(Cl)c2)c2ccccc21.Cl (centres unmarked) [MMV000248]	1600 nM	5.23	LONG (> 125 days)	0/3	no shift	0.191 µM	360 nM		
O=C(NC(c1ccccc1)c1ccc2cccnc2c1O)c1ccccc1 (centres unmarked) [MMV666080]	7210 nM	8.53	LONG (> 125 days)	0/3	no shift	0.756 µM	571 nM		
O=C(Nc1ccccc1O)c1ccc(Oc2cccc(C(=O)Nc3ccccc3O)c2)cc1 [MMV665888]	2980 nM	2.46	LONG (> 125 days)	0/3	no shift	0.989 µM	495 nM		
CCCOCc1cc(CN2CCN(c3cccc(Cl)c3)CC2)c(O)c2ncccc12 [MMV000787]	5670 nM		LONG (> 125 days)	0/3	no shift	1.43 µM	484 nM		
COc1cc(-c2nc(-c3ccccc3)c(-c3ccccc3)[nH]2)ccc1OCCN(C)C [MMV027496]	> 12500 nM	> 112	LONG (> 125 days)	0/3	no shift	0.302 µM	311 nM		
COc1cc(C(=O)ON=C(N)Cc2cccc3ccccc23)cc(OC)c1OC [MMV666687]	4340 nM		LONG (> 125 days)	0/3	no shift	0.914 µM	326 nM		
CCN(CC)S(=O)(=O)c1ccc(-c2csc(Nc3ccc(C)c(C)c3)n2)cc1 [MMV009108]	921 nM	0.99	SHORT (0-50 days)	3/3	9x	2.35 µM	373 nM		
COc1ccccc1CNC(=O)CCn1c(=O)[nH]c2ccsc2c1=O [MMV019066]	> 1250 nM	> 0.7	SHORT (0-50 days)	3/3	>15x	0.023 µM	42 nM	Statistically significant resistance	
CNCc1ccc2nc(-c3coc(Cc4cc(Cl)ccc4OCC(C)C)n3)[nH]c2c1.Cl.Cl [MMV026596]	6350 nM	18.35	LONG (> 125 days)	0/3	no shift	0.376 µM	349 nM		not obtained
O=C(NCC(CCCN1CCC(c2c[nH]c3ccccc23)CC1)c1ccccc1)Nc1ccc(Cl)c(Cl)c1 (centres unmarked) [MMV029272]	2230 nM	16.40	LONG (> 125 days)	3/3	6-9x	4.49 µM	592 nM		
Cc1ccc(S(=O)(=O)n2cc(-c3ccnc(N)c3)c3cc(Br)cnc32)cc1 [MMV024114]	> 12500 nM	> 47	LONG (> 125 days)	3/3	2x	1.72 µM	669 nM		
Nc1ccc(-c2nc3cc(Oc4ccc(Oc5ccc6[nH]c(-c7ccc(N)cc7)nc6c5)cc4)ccc3[nH]2)cc1 [MMV011895]	> 12500 nM	> 78	LONG (> 125 days)	2/3	2-4x	0.525 µM	232 nM		

— publication PMC4912613, “A broad analysis of resistance development in the malaria parasite” (Nature Communications, 2016)
